Patent US10544112B2, “Identification of ebsulfur analogues with broad-spectrum antifungal activity” (priority 2017, dated 2020)
Converted amounts (≈) assume the structure as drawn.

How the values were obtained:
[1] = tested on: C. albicans ATCC 64124 (strain B); assay: microbe, parasite or virus in culture; assay type: cell-based, Candida albicans; conditions: strain B; compounds 1-4n and AmB; 48 h, RPMI 1640
Experimental: (§1) Fungal MIC determination experiments were performed using untreated 96-well plates (Corning). Cells were counted either by using a hemocytometer (Hausser Scientific, Horsham, Pa., USA) or by measuring optical density at attenuance of 600 nm (OD600) by using a Genesys 20 spectrophotometer (Thermo Scientific, Waltham, Mass., USA). Spectrophotometric and colorimetric measurements in 96-well plates were performed using a SpectraMax M5 spectrometer (Molecular Devices, Sunnyvale, Calif., USA).
(§2) Yeast strains Candida albicans ATCC 10231 (strain A), C. albicans ATCC 64124 (strain B), and C. albicans ATCC MYA-2876(S) (strain C) were kindly provided by Dr. Jon Y. Takemoto (Utah State University, Logan, UT, USA). C. albicans ATCC MYA-90819(R) (strain D), C. albicans ATCC MYA-2310(S) (strain E), C. albicans ATCC 1237(R) (strain F), C. albicans ATCC MYA-1003(R) (strain G), Candida glabrata ATCC 2001 (strain H), Candida krusei ATCC 6258 (strain I), and Candida parapsilosis ATCC 22019 (strain J) were obtained from the American Type Culture Collection (ATCC, Manassas, Va., USA). The (S) and (R) indicate that ATCC reports these strains to be susceptible (S) and resistant (R) to ITC and FLC. The filamentous fungal strains Aspergillus flavus ATCC MYA-3631 (strain K), and Aspergillus terreus ATCC MYA-3633 (strain M) were also obtained from the American Type Culture Collection (ATCC, Manassas, Va., USA). Aspergillus nidulans ATCC 38163 (strain L) was kindly provided by Dr. Jon S. Thorson (University of Kentucky, Lexington, Ky., USA), respectively. Yeast strains were cultured at 35° C. Filamentous fungal strains were cultured at 25° C. and the spores were harvested. All fungal strains were cultured in RPMI 1640 medium (catalog # R6504, Sigma-Aldrich Chemical Co., St. Louis, Mo.) buffered to pH 7.0 with 0.165 M morpholinepropanesulfonic acid (MOPS) buffer (Sigma-Aldrich Chemical Co.).
(§3) The MIC values against fungal strains were determined based on a previously published protocol. MIC values for ebsulfur (2a) analogues against fungal cells were evaluated in 96-well plates as described in the CLSI document M27-A3 with minor modifications. […] Therefore, potato dextrose broth (PDB) was used to grow the yeast inocula of all strains tested, which were later diluted in RPMI 1640 medium to perform determination of MIC values. […] The tested compounds (10 mg/mL) were diluted to the working stocks (500 μg/mL) by addition of DMSO. Two-fold serial dilution of the working stocks was prepared by addition of RPMI 1640 medium (100 μL) and cell suspension (100 μL) to 96-well microtiter plate to achieve final drug and inoculum concentrations ranging from 12.5-0.02 μg/mL and 5×10^3 CFU/mL, respectively. Plates were incubated for 48 h at 35° C. […]

[2] = tested on: C. albicans ATCC 90819(R) (strain D); assay: microbe, parasite or virus in culture; assay type: cell-based, Candida albicans; conditions: strain D; compounds 1-4n and AmB; 48 h, RPMI 1640
Experimental: as §1, §2, §3

[3] = tested on: C. albicans ATCC MYA-1003(R) (strain G); assay: microbe, parasite or virus in culture; assay type: cell-based, Candida albicans; conditions: strain G; compounds 1-4n and AmB; 48 h, RPMI 1640
Experimental: as §1, §2, §3

[4] = tested on: C. albicans ATCC MYA-1237(R) (strain F); assay: microbe, parasite or virus in culture; assay type: cell-based, Candida albicans; conditions: strain F; compounds 1-4n and AmB; 48 h, RPMI 1640
Experimental: as §1, §2, §3

[5] = tested on: C. albicans ATCC MYA-2310(S) (strain E); assay: Antifungal MIC determination (CLSI M27-A3, 96-well); assay type: cell-based, Candida albicans; conditions: strain E; compounds 1-4n and AmB; 48 h, RPMI 1640
Experimental: as §1, §2, §3

[6] = tested on: C. albicans ATCC MYA-2876(S) (strain C); assay: as above; assay type: cell-based, Candida albicans; conditions: strain C; compounds 1-4n and AmB; 48 h, RPMI 1640
Experimental: as §1, §2, §3

[7] = tested on: Candida albicans ATCC 10231 (strain A); assay: as above; assay type: cell-based; conditions: strain A; compounds 1-4n and AmB; 48 h, RPMI 1640
Experimental: as §1, §2, §3

[8] = tested on: Candida glabrata ATCC 2001 (strain H); assay: as above; assay type: cell-based; conditions: strain H; compounds 1-4n and AmB; 48 h, RPMI 1640
Experimental: as §1, §2, §3

[9] = tested on: Candida krusei ATCC 6258 (strain I); assay: as above; assay type: cell-based; conditions: strain I; compounds 1-4n and AmB; 48 h, RPMI 1640
Experimental: as §1, §2, §3

[10] = tested on: Candida parapsilosis ATCC 22019 (strain J); assay: as above; assay type: cell-based; conditions: strain J; compounds 1-4n and AmB; 48 h, RPMI 1640
Experimental: as §1, §2, §3

[11] = tested on: Aspergillus flavus ATCC MYA-3631 (strain K); assay: Antifungal MIC determination, filamentous fungi spores; assay type: cell-based; conditions: all compounds
Experimental: as §1, §2
(§4) The MIC values against fungal strains were determined based on a previously published protocol. MIC values for ebsulfur (2a) analogues against fungal cells were evaluated in 96-well plates as described in the CLSI document M27-A3 with minor modifications. […] Therefore, potato dextrose broth (PDB) was used to grow the yeast inocula of all strains tested, which were later diluted in RPMI 1640 medium to perform determination of MIC values. […] The tested compounds (10 mg/mL) were diluted to the working stocks (500 μg/mL) by addition of DMSO. Two-fold serial dilution of the working stocks was prepared by addition of RPMI 1640 medium (100 μL) and cell suspension (100 μL) to 96-well microtiter plate to achieve final drug and inoculum concentrations ranging from 12.5-0.02 μg/mL and 5×10^3 CFU/mL, respectively. Plates were incubated for 48 h at 35° C.
(§5) MIC assays for the spore-forming filamentous fungi, such as strain A. flavus ATCC MYA-3631 (strain K), were performed in a similar fashion. The filamentous fungal strains were first cultured at 25° C. on potato dextrose agar (PDA) plates for 3-5 days or until confluent. Spores were collected by washing the surface of the agar plates with dd H2O (5 mL) and then isolated the spores by gravity filtration (the spores are H2O soluble). […] Researchers working with spores should wear a facemask to prevent spore inhalation.

[12] = tested on: Aspergillus nidulans ATCC 38163 (strain L); assay: as above; assay type: cell-based; conditions: strain L; spores
Experimental: as §1, §2, §4, §5

[13] = tested on: Aspergillus terreus ATCC MYA-3633 (strain M); assay: as above; assay type: cell-based; conditions: strain M; all compounds; spores
Experimental: as §1, §2, §4, §5

Candida strains (A-J) = assay: Antifungal MIC, summary over panel of Candida strains; assay type: cell-based; conditions: Candida strains A-J
Experimental: as §1, §2, §3

CC(C)c1ccc(-n2sc3ccccc3c2=O)cc1 [Compound 2e]
MIC-0 [1]: 3.13 µg/mL (≈ 11.6 µM) | MIC-0 [2]: 3.13 µg/mL (≈ 11.6 µM) | MIC-0 [3]: 3.13 µg/mL (≈ 11.6 µM) | MIC-0 [4]: 6.25 µg/mL (≈ 23.2 µM) | MIC-0 [5]: 3.13 µg/mL (≈ 11.6 µM) | MIC-0 [6]: 3.13 µg/mL (≈ 11.6 µM) | MIC-0 [7]: 3.13 µg/mL (≈ 11.6 µM) | MIC-0 [8]: 3.13 µg/mL (≈ 11.6 µM) | MIC-0 [9]: 3.13 µg/mL (≈ 11.6 µM) | MIC-0 [10]: 3.13 µg/mL (≈ 11.6 µM) | MIC-0 [11]: 6.25 µg/mL (≈ 23.2 µM) | MIC-0 [12]: 6.25 µg/mL (≈ 23.2 µM) | MIC-0 [13]: 6.25 µg/mL (≈ 23.2 µM) | MIC values against Candida strains, range (Candida strains (A-J)): 3.13 to 6.25 µg/mL

C#Cc1ccc(-n2sc3ccccc3c2=O)cc1 [Compound 2f]
MIC-0 [1]: 12.5 µg/mL (≈ 49.7 µM) | MIC-0 [2]: 12.5 µg/mL (≈ 49.7 µM) | MIC-0 [3]: 12.5 µg/mL (≈ 49.7 µM) | MIC-0 [4]: 12.5 µg/mL (≈ 49.7 µM) | MIC-0 [5]: >12.5 µg/mL | MIC-0 [6]: >12.5 µg/mL | MIC-0 [7]: 12.5 µg/mL (≈ 49.7 µM) | MIC-0 [8]: 6.25 µg/mL (≈ 24.9 µM) | MIC-0 [9]: 6.25 µg/mL (≈ 24.9 µM) | MIC-0 [10]: 12.5 µg/mL (≈ 49.7 µM) | MIC-0 [11]: 12.5 µg/mL (≈ 49.7 µM) | MIC-0 [12]: 12.5 µg/mL (≈ 49.7 µM) | MIC-0 [13]: 12.5 µg/mL (≈ 49.7 µM) | MIC values against Candida strains, range (Candida strains (A-J)): > 12.5 µg/mL

O=c1c2ccccc2sn1-c1cccc(Br)c1 [Compound 2g]
MIC-0 [1]: 12.5 µg/mL (≈ 40.8 µM) | MIC-0 [2]: 12.5 µg/mL (≈ 40.8 µM) | MIC-0 [3]: 12.5 µg/mL (≈ 40.8 µM) | MIC-0 [4]: 12.5 µg/mL (≈ 40.8 µM) | MIC-0 [5]: >12.5 µg/mL | MIC-0 [6]: 12.5 µg/mL (≈ 40.8 µM) | MIC-0 [7]: >12.5 µg/mL | MIC-0 [8]: 12.5 µg/mL (≈ 40.8 µM) | MIC-0 [9]: 12.5 µg/mL (≈ 40.8 µM) | MIC-0 [10]: 12.5 µg/mL (≈ 40.8 µM) | MIC-0 [11]: 12.5 µg/mL (≈ 40.8 µM) | MIC-0 [12]: 12.5 µg/mL (≈ 40.8 µM) | MIC-0 [13]: 12.5 µg/mL (≈ 40.8 µM) | MIC values against Candida strains, range (Candida strains (A-J)): > 12.5 µg/mL

O=c1c2ccccc2sn1-c1ccc(Cl)cn1 [Compound 2n]
MIC-0 [1]: 12.5 µg/mL (≈ 47.6 µM) | MIC-0 [2]: >12.5 µg/mL | MIC-0 [3]: 12.5 µg/mL (≈ 47.6 µM) | MIC-0 [4]: 12.5 µg/mL (≈ 47.6 µM) | MIC-0 [5]: 12.5 µg/mL (≈ 47.6 µM) | MIC-0 [6]: 12.5 µg/mL (≈ 47.6 µM) | MIC-0 [7]: 12.5 µg/mL (≈ 47.6 µM) | MIC-0 [8]: >12.5 µg/mL | MIC-0 [9]: >12.5 µg/mL | MIC-0 [10]: >12.5 µg/mL | MIC-0 [11]: >12.5 µg/mL | MIC-0 [12]: >12.5 µg/mL | MIC-0 [13]: >12.5 µg/mL | MIC values against Candida strains, range (Candida strains (A-J)): > 12.5 µg/mL

CCCCCCCCCCCCn1sc2ccccc2c1=O [Compound 3d]
MIC-0 [1]: >12.5 µg/mL | MIC-0 [2]: >12.5 µg/mL | MIC-0 [3]: >12.5 µg/mL | MIC-0 [4]: >12.5 µg/mL | MIC-0 [5]: >12.5 µg/mL | MIC-0 [6]: >12.5 µg/mL | MIC-0 [7]: >12.5 µg/mL | MIC-0 [8]: 12.5 µg/mL (≈ 39.1 µM) | MIC-0 [9]: >12.5 µg/mL | MIC-0 [10]: >12.5 µg/mL | MIC-0 [11]: >12.5 µg/mL | MIC-0 [12]: >12.5 µg/mL | MIC-0 [13]: >12.5 µg/mL | MIC values against Candida strains, range (Candida strains (A-J)): > 12.5 µg/mL
